Measurements from ChEMBL document CHEMBL4376854, “Investigation of the Adrenergic and Opioid Binding Affinities, Metabolic Stability, Plasma Protein Binding Properties, and Functional Effects of Selected Indole-Based Kratom Alkaloids” (J Med Chem, 2020).
Activity calls are given as the source filed them. No cut-off for these calls is given here.

Key:
[1] = molecular target: T1, Delta-type opioid receptor (Homo sapiens, UniProt P41143); assay: Displacement of [3H]DADLE from human recombinant delta opioid receptor expressed in rat Chem-1 (RBL) cell membranes at 100 nM incubated for 60 mins relative to control
[2] = human, microsomes, 1 h
[3] = Toxicity in Sprague-Dawley rat assessed as induction of hypothermia at 0.0032 to 10 mg/kg, iv; assay type: organism-based; conditions: in vivo
[4] = system: Rattus norvegicus; assay: Antinociceptive activity in Sprague-Dawley rat dosed intravenously using cumulative dosing every 5 mins until rat maxed-out on hot plate by hot plate test; assay type: functional; conditions: iv
[5] = system: Rattus norvegicus; assay: Antinociceptive activity in Sprague-Dawley rat dosed intravenously using cumulative dosing every 5 mins until rat maxed-out on hot plate co-treated with 0.1 mg/kg naltrexone by hot plate test; assay type: functional, organism-based
[6] = molecular target: T1, Delta-type opioid receptor; assay: Antagonist activity at human recombinant delta opioid receptor expressed in rat Chem-1 (RBL) cells assessed as inhibition of DPDPE-induced intracellular calcium levels incubated at room temperature by fluorimetry; assay type: functional, cell-based
[7] = molecular target: T1, Delta-type opioid receptor; assay: biochemical
[8] = in vitro; conditions: human, plasma
[9] = system: Rattus norvegicus; assay: Antinociceptive activity in Sprague-Dawley rat dosed intravenously using cumulative dosing every 5 mins until rat maxed-out on hot plate by hot plate test relative to control; assay type: functional
[10] = Protein binding in human plasma at 1 uM by equilibrium dialysis; assay type: ADME, cell-free; conditions: read-out: PPB (converted)
[11] = molecular target: Kappa-type opioid receptor (Homo sapiens, UniProt P41145); assay: Displacement of [3H]U69,593 from human recombinant kappa opioid receptor expressed in rat RBL cell membranes incubated for 60 mins
[12] = human, microsomes, 1 µM
[13] = molecular target: T1, Delta-type opioid receptor; assay: Displacement of [3H]DADLE from human recombinant delta opioid receptor expressed in rat Chem-1 (RBL) cell membranes at 10000 nM incubated for 60 mins relative to control
[14] = molecular target: Mu-type opioid receptor (Homo sapiens, UniProt P35372); assay: biochemical
Chain of Mu-type opioid receptor (P35372 whole entry): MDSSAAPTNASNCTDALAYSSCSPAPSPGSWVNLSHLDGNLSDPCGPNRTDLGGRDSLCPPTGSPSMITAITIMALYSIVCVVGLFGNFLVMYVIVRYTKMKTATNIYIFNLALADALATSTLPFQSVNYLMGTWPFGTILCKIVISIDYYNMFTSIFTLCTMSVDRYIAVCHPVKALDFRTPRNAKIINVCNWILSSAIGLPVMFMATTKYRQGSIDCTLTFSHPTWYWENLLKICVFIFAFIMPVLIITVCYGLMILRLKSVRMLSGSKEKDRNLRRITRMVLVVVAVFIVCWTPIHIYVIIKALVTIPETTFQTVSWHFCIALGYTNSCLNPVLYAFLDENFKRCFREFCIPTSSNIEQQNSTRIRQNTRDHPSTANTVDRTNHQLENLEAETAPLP

T1 sequence (P41143 whole entry): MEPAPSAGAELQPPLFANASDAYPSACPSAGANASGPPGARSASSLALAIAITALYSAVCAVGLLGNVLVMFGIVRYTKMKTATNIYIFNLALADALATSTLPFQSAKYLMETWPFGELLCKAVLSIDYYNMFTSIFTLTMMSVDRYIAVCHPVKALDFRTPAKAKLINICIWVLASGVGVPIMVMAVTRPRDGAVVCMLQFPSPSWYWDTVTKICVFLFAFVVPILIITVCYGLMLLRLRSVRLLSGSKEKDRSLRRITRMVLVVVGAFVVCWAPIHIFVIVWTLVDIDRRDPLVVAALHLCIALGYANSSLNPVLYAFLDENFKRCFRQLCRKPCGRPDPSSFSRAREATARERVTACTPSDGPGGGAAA
Chain of Kappa-type opioid receptor (P41145 whole entry): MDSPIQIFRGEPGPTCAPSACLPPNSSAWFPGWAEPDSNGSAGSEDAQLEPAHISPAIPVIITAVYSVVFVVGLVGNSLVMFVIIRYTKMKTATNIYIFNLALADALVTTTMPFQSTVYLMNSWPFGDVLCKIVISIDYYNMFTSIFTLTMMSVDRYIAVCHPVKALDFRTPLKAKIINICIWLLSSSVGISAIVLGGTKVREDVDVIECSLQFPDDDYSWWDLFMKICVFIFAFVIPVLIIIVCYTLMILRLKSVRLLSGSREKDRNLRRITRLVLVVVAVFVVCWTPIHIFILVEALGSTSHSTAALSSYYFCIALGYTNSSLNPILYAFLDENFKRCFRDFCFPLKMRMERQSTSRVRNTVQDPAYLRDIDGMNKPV

**Q.** For `CC[C@@H]1CN2CC[C@@]3(O)C(=Nc4cccc(OC)c43)[C@@H]2C[C@@H]1/C(=C\OC)C(=O)OC`, which inhibition [1] is on record?
**A.** 19.6%

**Q.** What about the Kel [2] of the same molecule?
**A.** 0.0041 min⁻¹

**Q.** And the Activity [3]?
**A.** Non-Toxic

**Q.** What about the ED50 [4] of the same molecule?
**A.** 1.91 mg/kg

**Q.** And the Activity [5]?
**A.** inactive

**Q.** What about the Kb [6] of the same molecule?
**A.** 550 nM

**Q.** And the Ki [7]?
**A.** 236 nM

**Q.** What about the fraction unbound at 1 µM [8] of the same molecule?
**A.** 0.1

**Q.** And the MPE [9]?
**A.** 100%

**Q.** What about the fraction unbound at 1 µM [10] of the same molecule?
**A.** 0.1

**Q.** And the Ki [11]?
**A.** 74.1 nM

**Q.** What about the Fu [12] of the same molecule?
**A.** 0.852

**Q.** What about the inhibition [13] of the same molecule?
**A.** 93.7%

**Q.** With `CC[C@@H]1CN2CCc3c([nH]c4cccc(O)c34)[C@@H]2C[C@@H]1/C(=C\OC)C(=O)OC` as the molecule, how does the Ki [14] read?
**A.** 105 nM

**Q.** For `CN1CC[C@]23c4c5ccc(O)c4O[C@H]2[C@@H](O)C=C[C@H]3[C@H]1C5` [MORPHINE], which ED50 [4] is on record?
**A.** 5.1 mg/kg

**Q.** And the Activity [5]?
**A.** inactive
